The numbers were not newly measured in patent US20050215571A1, “Therapeutic combination for cognititon enhancement and psychotic disorders” (Pfizer Inc., priority 2003, published 2005), which cites them from elsewhere.

The half-life is the time needed for the level to fall by half in the phase considered.

Assay in data set [1]: not given
The source holds these as a separate data set.

As for `O=C1Cc2cc(CCN3CCN(c4nsc5ccccc45)CC3)c(Cl)cc2N1` [Ziprasidone, 5-[2-[4-(1,2-benzisothiazol-3-yl)piperazin-1-yl]ethyl]-6-chloroindolin-2-one], the half-life (in vivo) is 6 to 7 h. For the same compound, where the note is “oral, taken with food”, the Oral bioavailability entry was “approximately 60%”. The protein binding entry in data set [1] is listed as “extensive”.
